Where two headings read alike, the source gives them in different places.
How the values were obtained:
HK cells, transporter 31 = test: HCHT imaging: inhibition of cytosolic delivery of ETP transporter 31; type: cell-based, Human; details: inhibitor 1 h; for IC15: read-out: MIC (concentration needed to reach 15% inhibition), transporter 31 10 μM
Method in brief: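 HeLa Kyoto cells grown 24 h in FluoroBrite DMEM + 10% FBS on 96-well black plates were exposed to serially diluted inhibitors for 1 h at 37 °C, then given fluorescent transporter 31 at 10 μM for 30 min, either after washing the inhibitor out (pre-incubation) or with it still present (co-incubation). Cytosolic delivery was then scored by automated HCHT live-cell imaging with Hoechst 33342 and PI staining.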

HeLa Kyoto cells = test: Relative viability (HOE/PI) in HCHT screening
Method in brief: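 HK cells exposed to increasing inhibitor concentrations, then fluorescent transporters at constant concentration, either after inhibitor removal (pre-incubation) or without removal (co-incubation).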

[1] = Homo sapiens, 1 h, read-out: IC50 (concentration needed to reach 50% inhibition), transporter 31 10 μM, co-incubation (C)
[2] = Homo sapiens, 1 h, co-incubation (C)
[3] = transporter 31 10 μM, co-incubation (C)
[4] = with transporter 28, co-incubation (C)
[5] = with transporter 31, co-incubation (C)
[6] = with transporter 28, pre-incubation (P)

Compound | IC50 (HK cells, transporter 31; [1]) | IC15 (HK cells, transporter 31; [2]) | IC15 (HK cells, transporter 31; Homo sapiens, 1 h, pre-incubation (P)) | IC50 (HK cells, transporter 31; Homo sapiens, read-out: IC50 (concentration needed to reach 50% inhibition), transporter 31 10 μM, pre-incubation (P)) | MIC (concentration needed to reach 15% inhibition) (HK cells, transporter 31; [3]) | RV50 (concentration needed to lower relative viability by 50%) (HeLa Kyoto cells; [4]) | RV50 (concentration needed to lower relative viability by 50%) (HeLa Kyoto cells; [5]) | RV50 (concentration needed to lower relative viability by 50%) (HeLa Kyoto cells; with transporter 31, pre-incubation (P)) | RV50 (concentration needed to lower relative viability by 50%) (HeLa Kyoto cells; [6]) | IC50 (HK cells, transporter 31; read-out: IC50 (concentration needed to reach 50% inhibition), transporter 31 10 μM, co-incubation (C))
O=C1O[C@H]2CSS(=O)(=O)C[C@H]2O1 [Compound 11] | > 50 µM | < 5 µM | 1.5 µM | 9 µM | <5 µM | > 50 µM | >50 µM | >20 µM | – | –
[O-][S+]1C[C@@H](O)[C@@H](O)CS1 (some centres unmarked) [Compound 2] | – | – | – | – | – | – | – | – | >100 µM | –
O=S1(=O)C[C@H](O)[C@H](O)CS1 (stereo in doubt) [Compound 3, (4S,5R)-4,5-dihydroxy-1,2-dithiane-1,1-dioxide] | 35 µM | 3 µM | – | – | 3 µM | – | >1000 µM | – | >1000 µM | –
O=S1(=O)C=C[C@@H](O)CS1 [Compound 12] | 7.2 ± 0.9 µM | < 1 µM | – | – | <1 µM | 100 µM | >50 µM | – | – | 7 µM
